Assay results published in patent publication US12077503B2, “Substituted cyclic amides and their use as herbicides” (FMC CORPORATION, priority 2015, dated 2024).

Key:
Format in all cases: in vivo
[1] = tested on: barnyardgrass (Echinochloa crus-galli); assay: Test G Pre-Emergence Protocol; conditions: Echinochloa crus-galli, pre-emergence, 312 h, evaluated after 13 days; for pest or weed control at 15.625 g/ha: 15.625 g ai/ha, read-out: Barnyard grass damage rating (100=total damage to plant; 0=no damage to plant); for pest or weed control at 62.5 g/ha: 62.5 g ai/ha, 100=total damage to plant, 0=no damage to plant, read-out: plant damage rating, Barnyardgrass; for pest or weed control at 250 g/ha: 250 g ai/ha, read-out: Barnyardgrass damage rating (100=total damage to plant; 0=no damage to plant)
In short: (§1)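 One day after sowing, pots are treated with a spray of test compound formulated in acetone/water 50:50 plus 0.5% Tween 20, giving 15.625, 62.5 or 250 g/ha. Evaluation on a 0–100 damage scale follows 13 days of glasshouse growth.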

[2] = tested on: ivy-leaved morning glory (Ipomoea hederacea); assay: Test G Pre-Emergence Protocol; conditions: Ipomoea, pre-emergence, 312 h, evaluated after 13 days; for pest or weed control at 15.625 g/ha: 15.625 g ai/ha, read-out: Morning-glory, Ivy-leaved damage rating (100=total damage to plant; 0=no damage to plant); for pest or weed control at 62.5 g/ha: 62.5 g ai/ha, 100=total damage to plant, 0=no damage to plant, read-out: plant damage rating, Morningglory, Ivy-leaved; for pest or weed control at 250 g/ha: 250 g ai/ha, read-out: Morningglory, Ivy-leaved damage rating (100=total damage to plant; 0=no damage to plant)
In short: as §1

corn (Zea mays) [3] = assay: Test G Pre-Emergence Protocol; conditions: Zea mays, pre-emergence, 312 h, evaluated after 13 days; for plant injury at 15.625 g/ha: 15.625 g ai/ha; for plant injury at 15.625 g/ha / plant injury at 250 g/ha: read-out: Corn damage rating (100=total damage to plant; 0=no damage to plant); for plant injury at 62.5 g/ha: 62.5 g ai/ha, 100=total damage to plant, 0=no damage to plant, read-out: plant damage rating, Corn; for plant injury at 250 g/ha: 250 g ai/ha
In short: as §1

[4] = tested on: redroot pigweed (Amaranthus retroflexus); assay: Test G Pre-Emergence Protocol; conditions: Amaranthus retroflexus, pre-emergence, 312 h, evaluated after 13 days; for pest or weed control at 15.625 g/ha: 15.625 g ai/ha; for pest or weed control at 15.625 g/ha / pest or weed control at 250 g/ha: read-out: Pigweed, Redroot damage rating (100=total damage to plant; 0=no damage to plant); for pest or weed control at 62.5 g/ha: 62.5 g ai/ha, 100=total damage to plant, 0=no damage to plant, read-out: plant damage rating, Pigweed, Redroot; for pest or weed control at 250 g/ha: 250 g ai/ha
In short: as §1

[5] = tested on: velvetleaf (Abutilon theophrasti); assay: Test G Pre-Emergence Protocol; conditions: Abutilon theophrasti, pre-emergence, 312 h, evaluated after 13 days; for pest or weed control at 15.625 g/ha: 15.625 g ai/ha; for pest or weed control at 15.625 g/ha / pest or weed control at 250 g/ha: read-out: Velvetleaf damage rating (100=total damage to plant; 0=no damage to plant); for pest or weed control at 62.5 g/ha: 62.5 g ai/ha, 100=total damage to plant, 0=no damage to plant, read-out: plant damage rating, Velvetleaf; for pest or weed control at 250 g/ha: 250 g ai/ha
In short: as §1

[6] = tested on: giant foxtail (Setaria faberi); assay: Test G Pre-Emergence Protocol; conditions: Setaria faberi, pre-emergence, 312 h, evaluated after 13 days; for pest or weed control at 15.625 g/ha: 15.625 g ai/ha; for pest or weed control at 15.625 g/ha / pest or weed control at 250 g/ha: read-out: Foxtail, Giant damage rating (100=total damage to plant; 0=no damage to plant); for pest or weed control at 62.5 g/ha: 62.5 g ai/ha, 100=total damage to plant, 0=no damage to plant, read-out: plant damage rating, Foxtail, Giant; for pest or weed control at 250 g/ha: 250 g ai/ha
In short: as §1

[7] = tested on: barnyardgrass (Echinochloa crus-galli); assay: Test G Post-Emergence Protocol; conditions: Echinochloa crus-galli, post-emergence, 312 h; for pest or weed control at 15.625 g/ha: 15.625 g ai/ha, evaluated after 13 days (100=total damage to plant; 0=no damage to plant), read-out: Barnyardgrass damage rating; for pest or weed control at 62.5 g/ha: 62.5 g ai/ha, read-out: Barnyardgrass damage rating (100=total damage to plant; 0=no damage to plant); for pest or weed control at 62.5 g/ha / pest or weed control at 250 g/ha: evaluated after 13 days; for pest or weed control at 250 g/ha: 250 g ai/ha, read-out: damage to plant, Barnyardgrass (100=total damage to plant; 0=no damage to plant)
In short: (§2)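 A glasshouse post-emergence test: 8-day-old plants sprayed at 15.625, 62.5 or 250 g/ha, then grown at 24/16 °C day/night with 14 h light and 65% humidity. Damage rated 13 days later, 0–100.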

[8] = tested on: ivy-leaved morning glory (Ipomoea hederacea); assay: Test G Post-Emergence Protocol; conditions: Ipomoea, post-emergence, 312 h; for pest or weed control at 15.625 g/ha: 15.625 g ai/ha, evaluated after 13 days (100=total damage to plant; 0=no damage to plant), read-out: Morningglory, Ivy-leaved damage rating; for pest or weed control at 62.5 g/ha: 62.5 g ai/ha, read-out: Morningglory, Ivy-leaved damage rating (100=total damage to plant; 0=no damage to plant); for pest or weed control at 62.5 g/ha / pest or weed control at 250 g/ha: evaluated after 13 days; for pest or weed control at 250 g/ha: 250 g ai/ha, read-out: damage to plant, Morningglory, Ivy-leaved (100=total damage to plant; 0=no damage to plant)
In short: as §2

corn (Zea mays) [9] = assay: Test G Post-Emergence Protocol; conditions: Zea mays, post-emergence, 312 h; for plant injury at 15.625 g/ha: 15.625 g ai/ha, evaluated after 13 days (100=total damage to plant; 0=no damage to plant), read-out: Corn damage rating; for plant injury at 62.5 g/ha: 62.5 g ai/ha, read-out: Corn damage rating (100=total damage to plant; 0=no damage to plant); for plant injury at 62.5 g/ha / plant injury at 250 g/ha: evaluated after 13 days; for plant injury at 250 g/ha: 250 g ai/ha, read-out: damage to plant, Corn (100=total damage to plant; 0=no damage to plant)
In short: as §2

[10] = tested on: redroot pigweed (Amaranthus retroflexus); assay: Test G Post-Emergence Protocol; conditions: Amaranthus retroflexus, post-emergence, 312 h; for pest or weed control at 15.625 g/ha: 15.625 g ai/ha, evaluated after 13 days (100=total damage to plant; 0=no damage to plant), read-out: Pigweed, Redroot damage rating; for pest or weed control at 62.5 g/ha: 62.5 g ai/ha, read-out: Pigweed, Redroot damage rating (100=total damage to plant; 0=no damage to plant); for pest or weed control at 62.5 g/ha / pest or weed control at 250 g/ha: evaluated after 13 days; for pest or weed control at 250 g/ha: 250 g ai/ha, read-out: damage to plant, Pigweed, Redroot (100=total damage to plant; 0=no damage to plant)
In short: as §2

[11] = tested on: velvetleaf (Abutilon theophrasti); assay: Test G Post-Emergence Protocol; conditions: Abutilon theophrasti, post-emergence, 312 h; for pest or weed control at 15.625 g/ha: 15.625 g ai/ha, evaluated after 13 days (100=total damage to plant; 0=no damage to plant), read-out: Velvetleaf damage rating; for pest or weed control at 62.5 g/ha: 62.5 g ai/ha, read-out: Velvetleaf damage rating (100=total damage to plant; 0=no damage to plant); for pest or weed control at 62.5 g/ha / pest or weed control at 250 g/ha: evaluated after 13 days; for pest or weed control at 250 g/ha: 250 g ai/ha, read-out: damage to plant, Velvetleaf (100=total damage to plant; 0=no damage to plant)
In short: as §2

[12] = tested on: giant foxtail (Setaria faberi); assay: Test G Post-Emergence Protocol; conditions: Setaria faberi, post-emergence, 312 h; for pest or weed control at 15.625 g/ha: 15.625 g ai/ha, evaluated after 13 days (100=total damage to plant; 0=no damage to plant), read-out: Foxtail, Giant damage rating; for pest or weed control at 62.5 g/ha: 62.5 g ai/ha, read-out: Foxtail, Giant damage rating (100=total damage to plant; 0=no damage to plant); for pest or weed control at 62.5 g/ha / pest or weed control at 250 g/ha: evaluated after 13 days; for pest or weed control at 250 g/ha: 250 g ai/ha, read-out: damage to plant, Foxtail, Giant (100=total damage to plant; 0=no damage to plant)
In short: as §2

Compound	pest or weed control at 15.625 g/ha [1]	pest or weed control at 62.5 g/ha [1]	pest or weed control at 250 g/ha [1]	pest or weed control at 15.625 g/ha [2]	pest or weed control at 62.5 g/ha [2]	pest or weed control at 250 g/ha [2]	plant injury at 15.625 g/ha (corn (Zea mays) [3])	plant injury at 62.5 g/ha (corn (Zea mays) [3])	plant injury at 250 g/ha (corn (Zea mays) [3])	pest or weed control at 15.625 g/ha [4]	pest or weed control at 62.5 g/ha [4]	pest or weed control at 250 g/ha [4]	pest or weed control at 15.625 g/ha [5]	pest or weed control at 62.5 g/ha [5]	pest or weed control at 250 g/ha [5]	pest or weed control at 15.625 g/ha [6]	pest or weed control at 62.5 g/ha [6]	pest or weed control at 250 g/ha [6]	pest or weed control at 15.625 g/ha [7]	pest or weed control at 62.5 g/ha [7]	also measured
CN1C[C@@H](c2ccnc(C(F)(F)F)c2)[C@H](C(=O)Nc2cccc(F)c2F)C1=O (racemic) [Compound 1585]	70%	90%	90%	0%	30%	80%	0%	80%	80%	0%	0%	20%	0%	0%	30%	70%	80%	90%	70%	80%	pest or weed control at 250 g/ha [7]: 70%; pest or weed control at 15.625 g/ha [8]: 20%; pest or weed control at 62.5 g/ha [8]: 30%; pest or weed control at 250 g/ha [8]: 70%; plant injury at 15.625 g/ha (corn (Zea mays) [9]): 30%; plant injury at 62.5 g/ha (corn (Zea mays) [9]): 60%; plant injury at 250 g/ha (corn (Zea mays) [9]): 80%; pest or weed control at 15.625 g/ha [10]: 0%; pest or weed control at 62.5 g/ha [10]: 20%; pest or weed control at 250 g/ha [10]: 30%; pest or weed control at 15.625 g/ha [11]: 0%; pest or weed control at 62.5 g/ha [11]: 20%; pest or weed control at 250 g/ha [11]: 30%; pest or weed control at 15.625 g/ha [12]: 60%; pest or weed control at 62.5 g/ha [12]: 60%; pest or weed control at 250 g/ha [12]: 70%
CN1C[C@@H](c2ccc(C(F)(F)F)cc2)[C@H](C(=O)Nc2csc(C(F)(F)F)n2)C1=O (racemic) [Compound 1587]	0%	0%	0%	0%	0%	0%	0%	10%	0%	0%	0%	10%	0%	0%	0%	0%	0%	0%	0%	20%	pest or weed control at 250 g/ha [7]: 40%; pest or weed control at 15.625 g/ha [8]: 0%; pest or weed control at 62.5 g/ha [8]: 0%; pest or weed control at 250 g/ha [8]: 40%; plant injury at 15.625 g/ha (corn (Zea mays) [9]): 0%; plant injury at 62.5 g/ha (corn (Zea mays) [9]): 0%; plant injury at 250 g/ha (corn (Zea mays) [9]): 0%; pest or weed control at 15.625 g/ha [10]: 0%; pest or weed control at 62.5 g/ha [10]: 10%; pest or weed control at 250 g/ha [10]: 70%; pest or weed control at 15.625 g/ha [11]: 0%; pest or weed control at 62.5 g/ha [11]: 0%; pest or weed control at 250 g/ha [11]: 0%; pest or weed control at 15.625 g/ha [12]: 0%; pest or weed control at 62.5 g/ha [12]: 20%; pest or weed control at 250 g/ha [12]: 60%
Cc1cc(NC(=O)[C@@H]2C(=O)N(C)C[C@H]2c2ccc(C(F)(F)F)cc2)ccc1F (racemic) [Compound 1593]	0%	0%	20%	0%	0%	0%	0%	0%	0%	0%	0%	0%	0%	0%	0%	0%	10%	70%	0%	0%	pest or weed control at 250 g/ha [7]: 20%; pest or weed control at 15.625 g/ha [8]: 0%; pest or weed control at 62.5 g/ha [8]: 0%; pest or weed control at 250 g/ha [8]: 0%; plant injury at 15.625 g/ha (corn (Zea mays) [9]): 0%; plant injury at 62.5 g/ha (corn (Zea mays) [9]): 10%; plant injury at 250 g/ha (corn (Zea mays) [9]): 10%; pest or weed control at 15.625 g/ha [10]: 0%; pest or weed control at 62.5 g/ha [10]: 0%; pest or weed control at 250 g/ha [10]: 0%; pest or weed control at 15.625 g/ha [11]: 0%; pest or weed control at 62.5 g/ha [11]: 0%; pest or weed control at 250 g/ha [11]: 0%; pest or weed control at 15.625 g/ha [12]: 0%; pest or weed control at 62.5 g/ha [12]: 10%; pest or weed control at 250 g/ha [12]: 70%
